# The NIST ThermoML archive (doi:10.1021/je200146j)
# ± gives the expanded uncertainty stated by the source.
# Test: mn = molality of the nth substance listed, in mol/kg
# Settings: 101 kPa, Liquid, m1 = 0.512; for speed of sound: Sing-around technique in a fixed-path interferometer; for mass density: Vibrating tube method
Structure (SMILES),speed of sound (298.15 K) [m/s],mass density (298.15 K) [kg/m3],speed of sound (303.15 K) [m/s],mass density (303.15 K) [kg/m3],speed of sound (308.15 K) [m/s],mass density (308.15 K) [kg/m3],speed of sound (313.15 K) [m/s],mass density (313.15 K) [kg/m3],speed of sound (318.15 K) [m/s],mass density (318.15 K) [kg/m3],speed of sound (323.15 K) [m/s],mass density (323.15 K) [kg/m3]
O=[N+]([O-])[O-].[K+] [potassium nitrate] + O,1517.8 ± 4.1,1027.98 ± 1,1526.8 ± 4.1,1026.22 ± 1,1536.3 ± 4.1,1024.1 ± 1,1544.4 ± 4.1,1022.05 ± 1,1551.1 ± 4.1,1020.2 ± 1,1556.6 ± 4.1,1018.2 ± 1
O=S(=O)([O-])[O-].[K+].[K+] [potassium sulfate] + O,1563.6 ± 4.1,1063.81 ± 1,1571.6 ± 4.1,1062.02 ± 1,1580.3 ± 4.1,1060.06 ± 1,1587.6 ± 4.1,1057.74 ± 1,1593.5 ± 4.1,1055.14 ± 1,1598.3 ± 4.1,1052.95 ± 1
